Assays:
[1] = test system: Arachidonate-Induced Bronchospasm (cyclooxygenase); assay: Pulmonary Mechanics Assay: arachidonate-induced bronchospasm without indomethacin (indicative of cyclooxygenase inhibition); type: in vivo, male Hartley guinea pigs; conditions: Cavia porcellus, guinea pig; for inhibition in vivo at 50 mg/kg: ID dosing, read-out: Inhibition of Arachidonate-Induced Bronchospasm (ID Dosing), % Inh. without Indomethacin; for inhibition in vivo at 15 mg/kg: IV dosing, read-out: Inhibition of Arachidonate-Induced Bronchospasm (IV Dosing), % Inh. without Indomethacin
Procedure: (§1) The bronchodilating activity of the compounds was tested in a pulmonary mechanics assay. Basically, male Hartley guinea pigs (about 400-500 g) were anesthetized with urethane (2 g/kg, i.p.) and placed in a whole body Plethysmograph. Cannulations of a jugular vein and carotid artery were performed for compound administration and monitoring blood pressure, respectively. The trachea was cannulated for respiration at a constate volume via a miniature starling pump. A Validyne differential pressure transducer (±20 cm H2 O) sensed transpleural pressure via a 15 gauge needle inserted into the pleural cavity and a sidearm from the tracheal cannula. Tidal volume was sensed by another Validyne differential pressure transducer (±2 cm H2 O) from pressure changes inside the plethysmograph. An on-line Buxco pulmonary mechanics computer calculated air flow, dynamic lung compliance and lung resistance. The values were recorded on a print-out.
(§2) The guinea pigs were pretreated with succinyl choline (1.2 mg/kg, i.v.) to arrest spontaneous respiration. A control challenge of arachidonic acid (0.5-1.0 mg/kg, i.v.) was administered, and the animals were then dosed with the test compound by various routes. At least 10 minutes were allowed to expire between arachidonic acid challenges. A second challenge was given and compared to the control response. This comparison was indicative of cyclooxygenase inhibition. Indomethacin (10 mg/kg, i.v.) was administered immediately after the second challenge. A third challenge of a higher dose of arachidonic acid (5-10 mg/kg, i.v.) was given. This response was induced by SRS-A and compared to the responses elicited by a separate control group of animals. Activity was indicative of lipoxygenase inhibition. Propranolol (0.005 mg/kg. i.v.) may be given prior to the third challenge to enhance the response to SRS-A.
(§3) Bronchoconstriction induced by arachidonic acid with or without indomethacin was expressed as maximum percent change in dynamic lung compliance (Cdyn) and maximum percent increase in lung resistance (RL). Each guinea pig served as its own control for cyclooxygenase evaluation. The results are shown in Table I and are expressed as the percent inhibition of control.

[2] = test system: Arachidonate-Induced Bronchospasm (lipoxygenase); assay: Pulmonary Mechanics Assay: arachidonate-induced bronchospasm with indomethacin (SRS-A response, indicative of lipoxygenase inhibition); type: in vivo, male Hartley guinea pigs; conditions: Cavia porcellus, guinea pig; for inhibition in vivo at 50 mg/kg: ID dosing, read-out: Inhibition of Arachidonate-Induced Bronchospasm (ID Dosing), % Inh. with Indomethacin; for inhibition in vivo at 15 mg/kg: IV dosing, read-out: Inhibition of Arachidonate-Induced Bronchospasm (IV Dosing), % Inh. with Indomethacin
Procedure: as §1, §2, §3

5-lipoxygenase = biological target: T1, 5-lipoxygenase (Rattus norvegicus, UniProt P12527); assay: Inhibition of 5-lipoxygenase in cell-free homogenate of rat basophilic leukemia (RBL-1) cells; type: biochemical; conditions: 3 μM; RBL-1 cell-free homogenate; read-out: Inhibition of 5-Lipoxygenase, % Inh. @ 3 μM
T1 construct: The cell-free homogenate was prepared by sonication of the cells followed by centrifugation at 40,000 xg; endogenous in cells; host or cells: RBL-1 (rat basophilic leukemia) cells, 40,000 xg supernatant of the sonicate
T1 sequence (P12527 1-673): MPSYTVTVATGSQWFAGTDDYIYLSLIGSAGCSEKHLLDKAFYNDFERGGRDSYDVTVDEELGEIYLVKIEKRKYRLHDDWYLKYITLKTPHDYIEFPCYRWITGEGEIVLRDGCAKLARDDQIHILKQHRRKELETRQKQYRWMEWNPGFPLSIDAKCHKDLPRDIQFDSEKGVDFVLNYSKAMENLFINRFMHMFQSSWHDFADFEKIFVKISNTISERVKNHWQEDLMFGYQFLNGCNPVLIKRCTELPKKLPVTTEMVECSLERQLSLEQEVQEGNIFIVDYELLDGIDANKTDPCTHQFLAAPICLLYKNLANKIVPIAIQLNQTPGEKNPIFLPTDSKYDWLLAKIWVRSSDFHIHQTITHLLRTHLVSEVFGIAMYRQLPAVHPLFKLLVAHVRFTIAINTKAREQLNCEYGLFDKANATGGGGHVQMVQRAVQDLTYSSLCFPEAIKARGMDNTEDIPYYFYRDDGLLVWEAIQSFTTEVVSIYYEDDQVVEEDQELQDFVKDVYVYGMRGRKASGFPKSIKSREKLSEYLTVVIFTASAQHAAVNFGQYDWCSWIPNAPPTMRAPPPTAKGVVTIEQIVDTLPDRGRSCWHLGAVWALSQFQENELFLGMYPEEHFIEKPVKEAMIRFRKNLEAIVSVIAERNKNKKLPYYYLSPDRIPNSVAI
Procedure: The inhibition of 5-lipoxygenase was tested in a cell-free homogenate by the procedure of B. Jakschik et al., Biochem.Biophys.Res.Comm. 95, 103 (1980). Basically, rat basophilic leukemia cells (RBL-1 cells) were maintained in culture in a suitable medium, and were collected by centrifugation prior to assay. The cell-free homogenate was prepared by sonication of the cells followed by centrifugation at 40,000 xg. The CaCl2 dependent production of lipoxygenase products from ^14 C-arachidonic acid in the 40,000 xg supernatant was monitored in the presence of buffer (or other vehicle) or drug. Products were isolated by acidification and extraction, followed by thin layer chromatography. Radioactive areas corresponding to the authentic lipoxygenase products were quantitated by liquid scintillation counting. Data was reported as the IC50, the concentration causing 50% inhibition of the generation of lipoxygenase products. The results are shown it Table I as the percent inhibition at 3 μM or the amount of compound necessary to cause 50% inhibition.

SMILES	inhibition in vivo at 50 mg/kg [1]	inhibition in vivo at 15 mg/kg [1]	inhibition in vivo at 50 mg/kg [2]	inhibition in vivo at 15 mg/kg [2]	inhibition at 3 µM (5-lipoxygenase)
COc1ccc([C@@H]2C[C@H]2NC(=O)N(C)O)cc1OC (relative stereo) [Example 66, N-[Trans-2-(3,4-dimethoxyphenyl)cyclopropyl]-N'-hydroxy-N'-methylurea]	43%	61%	45%	90%	28%
CCCCCCN(O)C(=O)N(C)C [Example 10, N,N-Dimethyl-N'-hexyl-N'-hydroxyurea]					100%
C=CCCCCCCCCNC(=O)N(C)O [Example 18, N-(9-Decenyl)-N'-methyl-N'-hydroxyurea]					94%
C=CCCCCCCCCC(O)CNC(=O)N(C)O (centres unmarked) [Example 21, N-(2-Hydroxy-11-dodecenyl)-N'-methyl-N'-hydroxyurea]					22%
CCCCC/C=C\C/C=C\C/C=C\C/C=C\CCCNC(=O)N(C)O [Example 22, N-(4,7,10,13-Nonadecatetraenyl)-N'-methyl-N'-hydroxyurea]					71%
CCCCCCCCCCC1CN(C)C(=O)N(O)C1 (centres unmarked) [Example 29, 5-Decyl-1-hydroxy-3-methyl-3,4,5,6-tetrahydro-lH-pyrimidin-2-one]					30%
CN(O)C(=O)NCc1ccc(-c2ccccc2)cc1 [Example 30, N-([1,1'-Biphenyl]-4-ylmethyl)N'hydroxy-N'methylurea]	< 20%		< 20%		74%
CN(O)C(=O)NCCCc1ccc(-c2ccccc2)cc1 [Example 32, N-[3-([1,1'-Biphenyl]-4-yl)propyl]-N'-hydroxy-N'-methylurea]	< 20%		< 20%		71%
CN(O)C(=O)NCCOc1ccc(-c2ccccc2)cc1 [Example 33, N-[2-([1,1'-biphenyl]-4-yloxy)ethyl]N'-hydroxy-N'-methylurea]	< 20%		28%		70%
CN(O)C(=O)NCCCOc1ccc(-c2ccccc2)cc1 [Example 34, N-[3-([l,l'biphenyl]-4-yloxy)propyl]N'hydroxy N'methylurea]	-74%		34%		93%
CN(O)C(=O)NCCCCOc1ccc(-c2ccccc2)cc1 [Example 35, N-[4-([1,1'-Biphenyl]-4-yloxy)butyl]N'-hydroxy-N'-methylurea]	< 20%		33%		79%
CN(O)C(=O)NCCCCCOc1ccc(-c2ccccc2)cc1 [Example 36, N-[5-([l,l'Biphenyl]-4-yloxy)pentyl]N'-hydroxy-N'-methylurea]	< 20%		31%		67%
CN(O)C(=O)NCCCCCCOc1ccc(-c2ccccc2)cc1 [Example 37, N-[6-([1,1'-Biphenyl]-4-yloxy)hexyl]N'hydroxy-N'-methylurea]	-33%		-11%		65%
CN(O)C(=O)NCCCCCCCOc1ccc(-c2ccccc2)cc1 [Example 38]	-9%		< 20%		56%
COc1ccc(CCNC(=O)N(O)C(C)C)cc1OC [Example 41, N-[2-(3,4-Dimethoxyphenyl)ethyl]-N'-hydroxy-N'-(1-methylethyl)urea]	< 20%	42%	30%	70%	95%
COc1ccc(CNC(=O)N(C)O)cc1OC [Example 42, N-[(3,4-Dimethoxyphenyl)methyl]-N'-hydroxy-N'-methylurea]					28%
COc1cc(CCNC(=O)N(C)O)cc(OC)c1OC [Example 45, N-[2-(3,4,5-Trimethoxyphenyl)ethyl]-N'-hydroxy-N'-methylurea]					36%
CN(O)C(=O)NCCc1ccc2c(c1)OCCO2 [Example 46, N-[2-(Benzo-1,4-dioxan-6-yl)ethyl]-N'-hydroxy-N'-methylurea]					42%
COc1ccc(OC)c(CCNC(=O)N(C)O)c1 [Example 47, N-[2-(2,5-Dimethoxyphenyl)ethyl]-N'-hydroxy-N'-methylurea]					56%
COc1cc(CCNC(=O)N(C)O)cc(OC)c1 [Example 48, N-[2-(3,5-Dimethoxyphenyl)ethyl]-N'-hydroxy-N'-methylurea]					42%
COc1ccc(CC(C)NC(=O)N(C)O)cc1OC (centres unmarked) [Example 54, N-[2-(3,4-Dimethoxyphenyl)-1-methylethyl]-N'-hydroxy-N'-methylurea]					8%
COc1cc2c(cc1OC)CC(NC(=O)N(C)O)C2 [Example 57, N-(5,6-Dimethoxyindan-2-yl)-N'-hydroxy-N'-methylurea]					55%
COc1ccc(C2C3CCC(C3)C2NC(=O)N(C)O)cc1OC (stereo not drawn) [Example 59, N-[trans-3-(3,4-Dimethoxyphenyl)bicyclo[2.2.1]-heptan-2-yl]-N '-hydroxy-N'-methylurea]					39%
COc1ccc(CCN(CC(C)C)C(=O)N(C)O)cc1OC [Example 64, N-[2-(3,4-Dimethoxyphenyl)ethyl]-N'-hydroxy-N'-methyl-N-(2-methylpropyl)urea]					33%
COc1ccc(CCN(C(=O)N(C)O)c2ccc(Cl)cc2)cc1OC [Example 67, N-[2-(3,4-Dimethyloxyphenyl)ethyl]-N-(4-chlorophenyl)-N'-methyl-N'-hydroxyurea]					48%
COc1cccc(C2CCCN(C(=O)N(C)O)C2)c1 (centres unmarked) [Example 73, N-Hydroxy-3-(3-methoxyphenyl)-N-methylpiperidine-1-carboxamide]					46%
CCOC(=O)CCCN(O)C(=O)NCCc1ccc(OC)c(OC)c1 [Example 74, N-[2-(3,4-Dimethoxyphenyl)ethyl]-N'-[3-(ethoxycarbonyl)propyl]-N'-hydroxyurea]					42%
CN(O)C(=O)N1CCC(C(c2ccccc2)c2ccccc2)CC1 [Example 75, 4-(Diphenylmethyl)-N-hydroxy-N-methylpiperidine-1-carboxamide]					44%
CN(O)C(=O)NCCc1cccc(Oc2ccccc2)c1 [Example 76, N-Hydroxy-N-methyl-N'-[2-(3-phenoxyphenyl)ethyl]urea]					66%

Reference: patent publication US5066658A, “Substituted hydroxyureas” (Ortho Pharmaceutical Corporation, priority 1990, dated 1991)
